Patent US20240279845A1, “METHOD FOR PREPARING A LIBRARY OF PEPTIDES OR A PEPTIDE” (ECOLE POLYTECHNIQUE FEDERALE DE LAUSANNE (EPFL), priority 2021, published 2024)

Experiments:
[1] = molecular target: T1, MDM2 (Homo sapiens, UniProt Q00987); test: MDM2 fluorescence polarization competition assay (displacement of FP53 peptide probe); type: binding; details: purified macrocycles, 1.2 μM MDM2; read-out: IC50 displacement of fluorescent peptide probe from MDM2
Experimental: The library was screened by dispensing to the reactions in the 384-mictrowell plates the target protein MDM2 and a reporter peptide to measure binding of the macrocycles.
One fluorescence anisotropy reading was taken with a Tecan Infinite F200 Pro fluorescence plate reader (excitation at 485 nm, emission at 535 nm) at 25° C.The percentage of probe displacement was calculated using to the following formula,
Volumes of 5 μL of purified macrocycles (20 mM in DMSO) were serial diluted two-fold in 100% DMSO in a low dead-volume ECHO source plate. Using acoustic droplet transfer, 150 nl of each dilution was transferred to a 384 well low volume polystyrene plate (Nunc, 264705). […] Fluorescence anisotropy was measured as described above. The percentage of bound inhibitor was calculated using the following equation
where N is the average anisotropy of the DMSO controls, X is the anisotropy value obtained for each well, and P is the average anisotropy of the unbound probe. The ICsos were determined by plotting the percent of bound inhibitor against the logarithm of the corresponding macrocycle concentration, and the curves were fitted in GraphPad Prism 6 as described above.

[2] = molecular target: T1, MDM2; test: Determining Kds of MDM2 binders by SPR; type: binding; details: unlabeled macrocycles, single cycle kinetics
Experimental: FIG. 30. Binding of macrocycles to MDM2 measured by SPR. a, Single-cycle SPR sensorgrams for fluorescein-labeled macrocycles, positive control nutlin-3a (not fluorescein labeled), and negative controls (thrombin inhibitors; not fluorescein labeled). RU, response unit. b, Single-cycle SPR sensorgrams for macrocycles M6, M7, M8 and M10 (not fluorescein-labeled), performed in triplicate.
Experiments were performed using a GE Healthcare Biacore 8K instrument. MDM2 (10 μg/mL) was dissolved in 10 mM MES buffer (pH 6.0) and immobilized on three channels of a CM5 series S chip (Cytiva, 29104988) using EDC/NHS amine coupling conditions in running buffer (10 mM PBS pH 7.4, 150 mM NaCl, 3 mM KCI, and 0.005% v/v Tween-20). Typical immobilization level was 6,000 to 7,000 resonance units (RUs). The reference cell was treated the same way without MDM2. For the measurement of binding kinetics and dissociation constants, five serial dilutions (3-fold) of macrocycles plus a DMSO blank were prepared in running buffer (10 mM PBS PH 7.4, 150 mM NaCl, 3 mM KCl, and 0.005% v/v Tween-20, and 0.5% v/v DMSO) and analyzed in single cycle kinetics mode with contact and dissociation times of 120 seconds and 60 seconds, respectively.

[3] = molecular target: T1, MDM2; test: Competition binding experiment of fluorescein-labeled M10 with nutlin-3a on MDM2; details: fluorescence polarization
Experimental: We subsequently performed a third cycle of library synthesis and screening, where we acylated the nine most promising scaffolds of the previous screens with 15 additional carboxylic acids, which were mostly cinnamic acid derivatives with larger substituents. We subsequently identified M10, which is a macrocycle based on the original scaffold and acylated with acid 120 that displaced the fluorescent probe used, F-M8, to 84% from MDM2 at 750 nM, and more efficiently than the parent compounds, M8 and M9 (FIG. 18c). […] With the fluorescein conjugate, we also performed a competition experiment with nutlin-3a that binds to a defined hydrophobic pocked of MDM2 (B. Anil et al., Acta Crystallogr. Sect. D Biol. Crystallogr. 2013, 69, 1358-1366) and is a precursor of nutlin-based clinical candidates.

[4] = molecular target: T2, thrombin (Homo sapiens, UniProt P00734); test: Thrombin inhibition screen of the 96-member disulfide-cyclized peptide library and Ki of purified hit (Example 2); type: biochemical
T2 construct: two polypeptide chains of 36 (light chain) and 259 amino acid residues (heavy chain); purchased Haematologic Technologies HCT-0020
Experimental: FIG. 7. Library design, peptide recovery quantification by absorption, and thrombin inhibition of the cyclic peptide library. (a) Design of library comprising 96 different peptides and structures of unnatural amino acids used in library. (b) Scatter plot of cyclic peptide concentrations (mM in DMSO) for the 96 synthesized cyclic peptides quantified by absorption at 280 nm. […] (c) Thrombin inhibition measured at an average cyclic peptide concentration of 11 μM. The peptides are ordered according to their thrombin inhibition activity in the first screen (black dots; highest to lowest activity). Green dots indicate thrombin inhibition for the same cyclic peptides measured in a second screen using the same conditions.
Despite the relatively small number of only 96 cyclic peptides and thus small chance of finding an active compounds, we performed a screen against thrombin, an important target for developing anticoagulation therapeutics, using a compound concentration of around 10 μM. […] Biological screens are typically performed at compound concentrations of around 10 μM, which means that the 100% DMSO and 150 mM DIPEA in the around 10 mM peptide stocks get 1000-fold diluted to reach concentrations of 0.1% and 150 μM, respectively, that unlikely affect most biological assays.

[5] = molecular target: T2, thrombin; test: Substrate KM for protease screen, thrombin; type: biochemical
Experimental: Crude macrocyclic libraries (4 mM DMSO stocks in 384-well LDV plates were transferred into 1536-well microtiter OptiPlates via ADE. Applied buffered solutions were prepared by filtration through PTFE syringe filters (0.22 μm) and assays were initiated by addition of protease (4.41 μl/well) in appropriate buffer (see list below) supplemented with bovine serum albumin (BSA; 0.1% w/v) and dispensed using a CERTUS automated liquid handler. Plates were incubated for 10 min at ambient temperature before fluorogenic substrate in appropriate buffer (4.5 μl) was added using a CERTUS automated liquid handler. Plates were centrifugated (800 g, 2 min) and fluorescence intensity was measured using a PHERAstar plate reader (excitation 384 nm, emission 440 nm) in time increments of 150 s over 15 min. Slopes of fluorescence increase (m) were calculated with Microsoft Excel (vers. 16.56). Negative controls were prepared without macrocycle. An average of 12 negative controls was used to calculate residual activities using Equation I below: […]
where [S]0 is the initial substrate concentration and KM is the Michaelis-Menten constant^12 for the enzyme and substrate.

T1 sequence (Q00987 whole entry): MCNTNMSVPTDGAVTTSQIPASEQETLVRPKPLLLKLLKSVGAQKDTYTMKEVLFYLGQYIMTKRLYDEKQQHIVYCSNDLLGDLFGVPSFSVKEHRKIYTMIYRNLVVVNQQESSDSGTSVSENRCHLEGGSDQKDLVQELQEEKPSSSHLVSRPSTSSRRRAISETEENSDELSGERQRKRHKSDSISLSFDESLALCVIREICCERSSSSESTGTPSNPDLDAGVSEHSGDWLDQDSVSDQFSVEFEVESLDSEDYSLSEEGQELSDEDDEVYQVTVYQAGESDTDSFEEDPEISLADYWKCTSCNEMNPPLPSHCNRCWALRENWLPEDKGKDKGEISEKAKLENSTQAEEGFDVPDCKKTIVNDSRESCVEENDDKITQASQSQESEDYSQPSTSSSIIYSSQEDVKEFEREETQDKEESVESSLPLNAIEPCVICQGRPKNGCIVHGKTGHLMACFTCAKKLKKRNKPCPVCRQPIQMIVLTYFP

Compound	IC50 [1] [nM]	Kd [2] [nM]	other results
O=C(NC[C@@H]1NC(=O)[C@H]2CCCN(C2)C(=O)CCSSCCNC(=O)[C@H](Cc2c[nH]c3ccccc23)NC1=O)c1ccc(Cl)cc1 [M7]	~1000	550 ± 190	
nutlin-3a			competition with fluorescein conjugate of M10 for MDM2 [3]: did not compete
O=C(NC[C@@H]1NC(=O)[C@H]2CCCN(C2)C(=O)CCSSCCNC(=O)[C@H](Cc2c[nH]c3ccccc23)NC1=O)c1ccc(Cl)s1 [M6]	~1000	600 ± 300	
Mpa-Tyr-II-Pro-Mea			Ki ([4]; HPLC-purified disulfide cyclized peptide): 13000 ± 1000 nM; reduction of thrombin activity ([4]; crude cyclic peptide, compound concentration of around 10 μM): 52%
O=C(/C=C/c1ccccc1)NC[C@@H]1NC(=O)[C@H]2CCCN(C2)C(=O)CCSSCCNC(=O)[C@H](Cc2c[nH]c3ccccc23)NC1=O [M8]	~1000	169 ± 93	
Cc1cc(=O)oc2cc(NC(=O)[C@H](CCCNC(=N)N)NC(=O)CNC(=O)CNC(=O)OCc3ccccc3)ccc12 [Cbz-G-G-R-AMC]			Km [5]: 305 ± 46 µM
